Test: xn = mol fraction of the nth substance listed
Conditions: 101 kPa, Liquid; for viscosity: Capillary tube (Ostwald / Ubbelohde) method; for mass density: Pycnometric method

CC(=O)CC(C)=O [2,4-pentanedione] + CC1COC(=O)O1
Conditions | mass density, 288.15 K [kg/m3] | mass density, 298.15 K [kg/m3] | mass density, 308.15 K [kg/m3] | viscosity, 288.15 K [mPa·s] | viscosity, 298.15 K [mPa·s] | viscosity, 308.15 K [mPa·s]
x2 = 0 | 980.34 | 972.18 | 963.46 | 0.741 | 0.67 | 0.609
x2 = 0.0212 | 984.24 | 975.79 | 966.83 | 0.769 | 0.692 | 0.627
x2 = 0.0438 | 988.61 | 979.89 | 970.69 | 0.797 | 0.714 | 0.646
x2 = 0.0625 | 992.42 | 983.48 | 974.11 | 0.821 | 0.732 | 0.661
x2 = 0.0827 | 996.68 | 987.54 | 977.99 | 0.845 | 0.751 | 0.677
x2 = 0.1026 | 1001.03 | 991.71 | 982 | 0.868 | 0.769 | 0.693
x2 = 0.201 | 1024.5 | 1014.55 | 1004.29 | 0.978 | 0.857 | 0.766
x2 = 0.2982 | 1050.05 | 1039.83 | 1029.34 | 1.086 | 0.944 | 0.838
x2 = 0.4028 | 1078.89 | 1068.64 | 1058.14 | 1.215 | 1.047 | 0.922
x2 = 0.5 | 1105.74 | 1095.61 | 1085.24 | 1.359 | 1.162 | 1.014
x2 = 0.6016 | 1132.67 | 1122.7 | 1112.52 | 1.549 | 1.313 | 1.133
x2 = 0.6985 | 1156.08 | 1146.19 | 1136.15 | 1.782 | 1.495 | 1.277
x2 = 0.7995 | 1176.95 | 1166.95 | 1156.95 | 2.093 | 1.735 | 1.466
x2 = 0.9016 | 1193.11 | 1182.69 | 1172.51 | 2.493 | 2.04 | 1.706

CC1COC(=O)O1 (configuration not stated) [4-methyl-1,3-dioxolan-2-one] + C1CCOC1
Conditions | mass density, 288.15 K [kg/m3] | mass density, 298.15 K [kg/m3] | mass density, 308.15 K [kg/m3] | viscosity, 288.15 K [mPa·s] | viscosity, 298.15 K [mPa·s] | viscosity, 308.15 K [mPa·s]
x1 = 0.0188 | 901.15 | 890.25 | 879.17 | 0.524 | 0.47 | 0.432
x1 = 0.0393 | 910.03 | 899.18 | 888.14 | 0.542 | 0.479 | 0.439
x1 = 0.0603 | 918.97 | 908.19 | 897.18 | 0.561 | 0.49 | 0.448
x1 = 0.077 | 926 | 915.27 | 904.28 | 0.575 | 0.5 | 0.455
x1 = 0.0988 | 935.05 | 924.38 | 913.41 | 0.594 | 0.513 | 0.466
x1 = 0.2117 | 979.75 | 969.45 | 958.45 | 0.696 | 0.6 | 0.541
x1 = 0.3057 | 1014.39 | 1004.06 | 993.26 | 0.794 | 0.699 | 0.629
x1 = 0.4024 | 1047.72 | 1037.25 | 1026.68 | 0.921 | 0.831 | 0.745
x1 = 0.4992 | 1078.98 | 1068.45 | 1057.96 | 1.088 | 0.998 | 0.89
x1 = 0.5997 | 1109.33 | 1098.74 | 1088.29 | 1.317 | 1.211 | 1.072
x1 = 0.7015 | 1138.16 | 1127.39 | 1117.06 | 1.626 | 1.473 | 1.289
x1 = 0.8033 | 1165.19 | 1154.55 | 1144.02 | 2.03 | 1.786 | 1.54
x1 = 0.9064 | 1190.96 | 1179.68 | 1169.74 | 2.556 | 2.158 | 1.83
x1 = 1 | 1208.67 | 1197.58 | 1187.16 | 3.086 | 2.5 | 2.073

CC1COC(=O)O1 (configuration not stated) [4-methyl-1,3-dioxolan-2-one] + C1COCCO1
Conditions | mass density, 288.15 K [kg/m3] | mass density, 298.15 K [kg/m3] | mass density, 308.15 K [kg/m3] | viscosity, 288.15 K [mPa·s] | viscosity, 298.15 K [mPa·s] | viscosity, 308.15 K [mPa·s]
x1 = 0.0213 | 1042.6 | 1031.46 | 1020.15 | 1.429 | 1.181 | 1.027
x1 = 0.041 | 1045.89 | 1034.79 | 1023.54 | 1.421 | 1.177 | 1.027
x1 = 0.0636 | 1049.76 | 1038.7 | 1027.51 | 1.413 | 1.174 | 1.02
x1 = 0.0823 | 1053.01 | 1041.99 | 1030.85 | 1.408 | 1.173 | 1.026
x1 = 0.0999 | 1056.12 | 1045.13 | 1034.02 | 1.404 | 1.172 | 1.022
x1 = 0.202 | 1074.8 | 1064.02 | 1053.09 | 1.408 | 1.184 | 1.028
x1 = 0.299 | 1093.28 | 1082.69 | 1071.87 | 1.45 | 1.22 | 1.053
x1 = 0.3991 | 1112.62 | 1101.92 | 1091.44 | 1.534 | 1.286 | 1.102
x1 = 0.4991 | 1131.72 | 1121.15 | 1110.7 | 1.659 | 1.381 | 1.171
x1 = 0.5987 | 1150.06 | 1139.4 | 1129.1 | 1.826 | 1.508 | 1.274
x1 = 0.6996 | 1167.4 | 1156.75 | 1146.43 | 2.039 | 1.671 | 1.405
x1 = 0.8049 | 1183.66 | 1172.85 | 1162.59 | 2.307 | 1.878 | 1.571
x1 = 0.9003 | 1196.16 | 1185.45 | 1175.02 | 2.589 | 2.101 | 1.748
x1 = 1 | 1208.67 | 1197.58 | 1187.16 | 3.086 | 2.5 | 2.073
